Data on eight compounds can be found in patent publication US12509437B2, “Substituted thiophene carboxamides and derivatives thereof as microbicides” (Bayer Aktiengesellschaft, priority 2019, dated 2025).

Read-outs that look alike come from different tables or passages of the source. Some results are limits rather than exact numbers.

The nature of data set [1]: LogP by HPLC on reversed phase columns (EEC directive 79/831 Annex V.A8). Type of data set: physicochemical. To be noted: reversed phase HPLC columns. In short, it runs like this: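 Reversed-phase HPLC, calibrated with straight-chain alkan-2-ones (C3–C16) of known LogP; values by linear interpolation of retention times between successive alkanones. Multiple values from one method are joined by "+"; lambda-max taken from 200–400 nm UV spectra at chromatographic peaks.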

Data set [2] has as its system Xanthomonas campestris pv. campestris. In words: Xanthomonas campestris pv. campestris in vitro cell test. Type of data set: cell-based. As to conditions: 24 h of incubation, read-out: efficacy (inhibition of bacteria growth; no direct activity); for inhibition at 5 ppm: 5 ppm of active ingredient; for inhibition at 20 ppm: 20 ppm of active ingredient. Put shortly: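 Bacteria from liquid pre-culture diluted to set OD in LB broth and exposed to compounds dissolved in DMSO (final ≤1%). After 24 h, growth read by absorbance; inhibition derived relative to compound-free control wells.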

The test system of data set [3] is Uromyces appendiculatus. Put plainly: In vivo preventive test on Uromyces appendiculatus (bean rust). To be noted: 240 h, sprayed 72 hours before inoculation, evaluated 10 days after inoculation, read-out: efficacy; for pest or weed control at 31 ppm: 31 ppm of active ingredient; for pest or weed control at 125 ppm: 125 ppm of active ingredient; for pest or weed control at 500 ppm: 500 ppm of active ingredient. Put shortly:
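Young bean plants sprayed with compound in acetone/DMSO/Tween diluted in water, then inoculated 72 h later with spore suspension. Incubated 24 h at 20° C., 100% RH, then 9 days at 20° C., 70-80% RH. Efficacy scored 10 days post-inoculation, 0% = untreated-control level, 100% = no disease.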

Setting [4] is: preparation examples, method not indicated, read-out: Log P.

In data set [1] (method [a]), `COC(=O)C(NC(=O)c1sc(Br)c(Br)c1C)C1CC1` (stereo not drawn) [I.032] had a chromatographic logP of 3.41. For the same compound, in data set [2], the inhibition at 5 ppm is at most 30%. In data set [3], the pest or weed control at 31 ppm lay in the range of 90 to 100%, the pest or weed control at 125 ppm is 90 to 100% and the pest or weed control at 500 ppm is 90 to 100%.
With `CCOC(=O)C1(NC(=O)c2sc(Cl)c(Cl)c2C)CCC1` [I.047], the chromatographic logP in data set [1] (method [a]) is 3.67. Moreover, in data set [2], the inhibition at 5 ppm is at most 30% and the inhibition at 20 ppm was at most 30%. Moreover, in data set [3], the pest or weed control at 31 ppm was in the range of 80 to 89%, the pest or weed control at 125 ppm fell in the range of 90 to 100% and the pest or weed control at 500 ppm fell in the range of 90 to 100%.
Regarding `Cc1c(C(=S)NC2(C(=O)O)CC2)sc(Cl)c1Cl` [I.060], the chromatographic logP in data set [1] (method [a]) stood at 2.84. In addition, in data set [2], the inhibition at 5 ppm was at most 30% and the inhibition at 20 ppm is at most 30%. Further, in data set [3], the pest or weed control at 31 ppm lay in the range of 90 to 100%, the pest or weed control at 125 ppm was in the range of 90 to 100% and the pest or weed control at 500 ppm was in the range of 90 to 100%.
In data set [1] (method [a]), `CCOC(=O)C(C#N)NC(=O)c1sc(Br)c(Br)c1C` (stereo not drawn) [I.077] showed a chromatographic logP of 3.22. Besides, in data set [2], the inhibition at 5 ppm was at most 30% and the inhibition at 20 ppm was at most 30%. Besides, in data set [3], the pest or weed control at 31 ppm is 70 to 79%, the pest or weed control at 125 ppm was in the range of 90 to 100% and the pest or weed control at 500 ppm is 90 to 100%.
For `Cc1c(C(=O)NC(C(=O)O)C2CC2)sc(Br)c1Br` (stereo not drawn) [I.080, cyclopropyl{[(4,5-dibromo-3-methyl-2-thienyl)carbonyl]amino}acetic acid], in data set [1] (setting [4]), the chromatographic logP stood at 2.67. In addition, in data set [2], the inhibition at 5 ppm was at most 30% and the inhibition at 20 ppm was at most 30%. Moreover, the pest or weed control at 500 ppm in data set [3] was in the range of 90 to 100%.
As to `COC(=O)C(NC(=O)c1sc(Cl)c(Cl)c1C)C1CC1` (stereo not drawn) [I.081, methyl cyclopropyl{[(4,5-dichloro-3-methyl-2-thienyl)carbonyl]amino}acetate], the chromatographic logP in data set [1] (setting [4]) worked out at 3.31. Further, in data set [2], the inhibition at 5 ppm was at most 30% and the inhibition at 20 ppm was at most 30%. In data set [3], the pest or weed control at 125 ppm is 90 to 100% and the pest or weed control at 500 ppm fell in the range of 90 to 100%.
In turn, `Cc1c(C(=O)NC(C(=O)O)C2CC2)sc(Cl)c1Cl` (stereo not drawn) [I.095] showed a chromatographic logP in data set [1] (method [a]) of 2.59. Further, in data set [2], the inhibition at 5 ppm is at most 30% and the inhibition at 20 ppm was at most 30%. In data set [3], the pest or weed control at 31 ppm lay within 80 to 89%, the pest or weed control at 125 ppm was in the range of 90 to 100% and the pest or weed control at 500 ppm is 90 to 100%.
The compound `COC(=O)CC[C@H](NC(=O)c1sc(Cl)c(Cl)c1C)C(=O)OC` [I.122] came in with a chromatographic logP in data set [1] (method [a]) of 3.08. In data set [2], the inhibition at 5 ppm was at most 30% and the inhibition at 20 ppm is at most 30%. The pest or weed control at 500 ppm in data set [3] lay in the range of 90 to 100%.

The term inhibition denotes the drop in the measured response relative to a control, in per cent.
